“And” between values parts separate entries of the source, which are not always exact repeats. Equal values may be shown once. Read-outs that look alike come from different tables or passages of the source.
Tests used:
[1] = molecular target: T1, horse BChE (Equus caballus, UniProt P81908); details: hydrolysis of BSCh by horse BChE, same conditions; cited from earlier work
T1 construct: purchased Worthington Biochemical Corporation

[2] = molecular target: T1, horse BChE; assay: biochemical; format: biochemical; details: for type of inhibition: hydrolysis of 50 μM BSCh, progress curves to 600 s; for Kon: pH 7.0
Description: Purified horse BChE was from Worthington Biochemical Corporation, dithio-bis-di-nitro benzoic acid and butyrylthiocholine iodide (BSCh) were from Sigma, tetramethylammonium iodide (TMA), tetraethylammonium iodide (TEA), edrophonium chloride (EDR), and methanesulfonylfluoride (MSF) were from BDH; decamethonium bromide (DME) was from Koch Light Laboratories; sodium fluoride and d-Tubocurarine were from Fluka AG. N-((1-benzylpiperidin-3-yl)methyl)-N-methylnaphthalene-2-sulfonamide (942) was synthesized in the Faculty of Pharmacy, University of Ljubljana (Ljubljana, Slovenia). All other reagents used were of analytical grade. The experiments were carried out at 25 °C in 25 mM phosphate buffer, pH 7.0.
A series of compounds were tested by measuring the progress curves for BSCh hydrolysis by horse BChE in the absence and presence of each compound at a single concentration over 10 min, in a 0.6 mL cuvette, using the method of Ellman et al.. […] The concentration of horse BChE, which was always added last, was ~1 nM, for hydrolysis of 50 μM BSCh to completion (in most cases), in the presence of 1 mM dithio-bis-di-nitro benzoic acid. Reaching the plateau was important to get an exact estimate of the actual initial BSCh concentration. This was achieved by conversion of the change in absorbance at 412 nm of the resulting thio-nitro benzoate, using a molar absorption coefficient of 13,800 mol^−1 cm^−1. All of the measurements were conducted using a conventional spectrophotometer (Lambda 45/Vis; Perkin-Elmer), and a 10-s lag period was added before the start of each measurement. The progress curves were then extrapolated to start at the origin prior to the analysis.
The progress-curve analysis was performed using the ENZO web application (Figure 2), implemented at www.enzo.cmm.ki.si. For rapid determination of the kinetics mechanisms and parameters, the Van Slyke–Cullen reaction scheme for substrate hydrolysis by horse BChE was combined with a reversible competitive inhibition mechanism, as expected for active-site-directed ligands. […] In the initial evaluation, all of the second-order binding rate constants (kon’s), although not the constant for MSF, were set to the diffusion rate-limited value of 2 ×10^8 M^−1 s^−1. Therefore, only the first-order dissociation rate constants, together with the substrate specificity constant kcat/Km, the initial substrate concentration, and the added horse BChE active-site concentration, had to be evaluated. The kcat of 663 s^−1 for the hydrolysis of BSCh by horse BChE was taken from a previous study performed under the same conditions.
Therefore, a similar experiment was performed, but in the presence of three additional sodium fluoride concentrations (0.25, 1, 2.5 mM). Each of these measurements was performed twice in a row to determine the reliability of the data obtained. The progress curve analysis was then performed using four types of classical inhibition mechanisms: competitive, uncompetitive, non-competitive, and mixed. Again, a 10-s lag period was added to the time-course of each measurement prior to the analysis using the ENZO web application.

[3] = 50 μM BSCh, 25 °C, 25 mM phosphate buffer pH 7.0, single progress curve, competitive mechanism, read-out: Ki
[4] = slow isomerization step after instantaneous binding, 50 μM BSCh

T1 sequence (P81908 whole entry): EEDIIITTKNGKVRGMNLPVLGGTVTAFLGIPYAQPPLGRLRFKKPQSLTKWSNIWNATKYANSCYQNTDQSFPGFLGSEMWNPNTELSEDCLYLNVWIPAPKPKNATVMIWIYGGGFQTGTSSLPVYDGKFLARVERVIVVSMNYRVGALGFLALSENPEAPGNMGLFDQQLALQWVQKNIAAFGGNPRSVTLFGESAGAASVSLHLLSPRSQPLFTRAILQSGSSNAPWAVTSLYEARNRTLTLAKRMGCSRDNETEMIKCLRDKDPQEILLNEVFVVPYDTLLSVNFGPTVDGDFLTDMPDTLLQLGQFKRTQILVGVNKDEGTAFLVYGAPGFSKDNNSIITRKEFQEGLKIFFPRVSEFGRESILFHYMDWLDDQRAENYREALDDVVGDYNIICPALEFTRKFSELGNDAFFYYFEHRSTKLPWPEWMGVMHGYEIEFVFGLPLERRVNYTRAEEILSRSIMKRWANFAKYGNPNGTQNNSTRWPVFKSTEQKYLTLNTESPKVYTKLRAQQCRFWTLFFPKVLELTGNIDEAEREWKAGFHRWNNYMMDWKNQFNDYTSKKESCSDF

With CCCC(=O)SCC[N+](C)(C)C.[I-] [BSCh, butyrylthiocholine iodide] as the compound, how does the kcat [1] read?
Its kcat is 663 s⁻¹.

For C[N+](C)(C)CCCCCCCCCC[N+](C)(C)C [Decamethonium, decamethonium bromide], which Ki [2] is on record?
The Ki was 7.6 µM.

And the type of inhibition [2]?
The type of inhibition was “reversible competitive inhibitors”.

With CC[N+](C)(C)c1cccc(O)c1 [Edrophonium, edrophonium chloride] as the compound, how does the Ki [2] read?
Its Ki is 21 µM.

What about the type of inhibition [2] of the same compound?
Its type of inhibition is “reversible competitive inhibitors”.

With CS(=O)(=O)F [Methanesulfonylfluoride, methanesulfonylfluoride] as the compound, how does the type of inhibition [2] read?
Its type of inhibition is “irreversible inhibitor”.

What about the Kon ([2]; irreversible inhibition step, 15 mM MSF, 50 μM BSCh, 25 °C) of the same compound?
The Kon was 0.39 s⁻¹.

With [F-].[Na+] [Sodium fluoride, sodium fluoride] as the compound, how does the Ki ([2]; competitive component of mixed inhibition, from Figure 3, 0.25, 0.5, 1 and 2.5 mM sodium fluoride, 50 μM BSCh, read-out: Ki) read?
Its Ki is 830 µM.

And the type of inhibition [2]?
Its type of inhibition is “mixed reversible inhibitor”.

And the “uncompetitive component stronger than the competitive component” value ([2]; mixed inhibition model, Table 1)?
The value was 2.4 fold.

What about the Kii ([2]; uncompetitive component of mixed inhibition, from Figure 3, 0.25, 0.5, 1 and 2.5 mM sodium fluoride, 50 μM BSCh) of the same compound?
The Kii was 0.34 mM.

Which results are given for CC[N+](CC)(CC)CC.[I-] [Tetraethylammonium, tetraethylammonium iodide]?
Ki [2, 3]: 1500 µM; type of inhibition [2]: reversible competitive inhibitors

With C[N+](C)(C)C.[I-] [Tetramethylammonium, tetramethylammonium iodide] as the compound, how does the Ki [2, 3] read?
The Ki was 2400 µM.

What about the type of inhibition [2] of the same compound?
Its type of inhibition is “reversible competitive inhibitors”.

For CN(CC1CCCN(Cc2ccccc2)C1)S(=O)(=O)c1ccc2ccccc2c1 (centres unmarked) [compound 942, N-((1-benzylpiperidin-3-yl)methyl)-N-methylnaphthalene-2-sulfonamide], which Kon ([2]; association rate constant, 50 μM BSCh, 25 °C) is on record?
The Kon was 6.2e+07 M⁻¹ s⁻¹ and 6.2 M⁻¹ s⁻¹.

What about the type of inhibition [2] of the same compound?
The type of inhibition was “tight binder”.

What about the Ki ([2]; read-out: Ki) of the same compound?
The Ki was 0.00043 µM.

For COc1cc2c3cc1Oc1cc(ccc1O)C[C@@H]1c4c(cc(OC)c(O)c4Oc4ccc(cc4)C[C@@H]3N(C)CC2)CC[N+]1(C)C [d-Tubocurarine], which Ki [2] is on record?
The Ki was 5.1 µM.

What about the type of inhibition [2] of the same compound?
Its type of inhibition is “slow binder”.

What about the “K+isomerization” value [2, 4] of the same compound?
The value was 0.029 s⁻¹.

What about the K-isomerization [2, 4] of the same compound?
Its K-isomerization is 0.010 s⁻¹.

For [I-].[Na+] [sodium iodide], which “inhibition of BSCh hydrolysis” value ([2]; at 0.5 mM, data not shown) is on record?
The value was “no inhibition”.
